How the values were obtained:
Format in all cases: in vivo
fall panicum = experiment: Herbicidal activity test against upland field weeds (foliar treatment test); conditions: scale 0-100
Outline: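 Weeds were raised from seed or rootstocks in horticultural soil in a greenhouse (30±5° C., 14/10 h light/dark), then foliage was hand-sprayed with compound at 50 or 75 g a.i./ha in 50% acetone with 0.1% Tween-20. Control was scored visually 0–100 against untreated plants after 14 days, or 21 if needed.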

black nightshade = experiment: Herbicidal activity test against upland field weeds (soil treatment test); set-up: key to Soil treatment herbicidal activity, black nightshade: 0 (no control); 100 (complete control); conditions: scale 0 (no control) to 100 (complete control); for pest or weed control at 50 g/ha: Solanum nigrum
Outline: (§1)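 Pre-emergence test: seeds or rootstocks were sown in fertilized sandy loam, and the next day the soil surface was sprayed with compound at 50 or 75 g a.i./ha in 50% acetone/0.1% Tween-20. Plants were grown in a greenhouse (30±5 °C, 14/10 h light/dark), then visually scored 0–100 against untreated at 14 d (21 d if needed).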

crabgrass = experiment: as above; set-up: key to Soil treatment herbicidal activity, Crabgrass: 0 (no control); 100 (complete control); conditions: scale 0 (no control) to 100 (complete control); for pest or weed control at 50 g/ha / Soil treatment herbicidal activity, Crabgrass: 50 g ai/ha
Outline: as §1

[1] = Panicum dichotomiflorum, 50 g ai/ha

Cn1nnnc1COc1nc(C(F)(F)F)ccc1C(=O)Nc1nnnn1C [Compound No. 1-1, N-(1-methyl-1H-tetrazol-5-yl)-2-((1-methyl-1H-tetrazol-5-yl)methoxy)-6-(trifluoromethyl)nicotinamide]
pest or weed control at 50 g/ha (fall panicum; [1]): 95%
Soil treatment herbicidal activity, black nightshade (black nightshade; 50 g ai/ha): 100
pest or weed control at 50 g/ha (crabgrass; Digitaria sanguinalis): 98%

Cn1nnnc1NC(=O)c1ccc(C(F)(F)F)nc1OCc1nnnn1C(F)F [Compound No. 1-26, 2-((1-(difluoromethyl)-1H-tetrazol-5-yl)methoxy)-N-(1-methyl-1H-tetrazol-5-yl)-6-(trifluoromethyl)nicotinamide]
pest or weed control at 50 g/ha (fall panicum; [1]): 98%
Soil treatment herbicidal activity, black nightshade (black nightshade; 50 g ai/ha): 100

Cn1nnnc1COc1nc(C(F)(F)F)ccc1C(=S)Nc1nnnn1C [Compound No. 1-43, N-(1-methyl-1H-tetrazol-5-yl)-2-((1-methyl-1H-tetrazol-5-yl)methoxy)-6-(trifluoromethyl)pyridin-3-carbothioamide]
pest or weed control at 50 g/ha (fall panicum; [1]): 95%
Soil treatment herbicidal activity, black nightshade (black nightshade; 50 g ai/ha): 0
pest or weed control at 50 g/ha (crabgrass; Digitaria sanguinalis): 20%

Cn1ncnc1COc1nc(C(F)(F)F)ccc1C(=O)Nc1nnnn1C [Compound No. 1-45, 2-((1-methyl-1H-1,2,4-triazol-5-yl)methoxy)-N-(1-methyl-1H-tetrazol-5-yl)-6-(trifluoromethyl)nicotinamide]
pest or weed control at 50 g/ha (fall panicum; [1]): 95%
Soil treatment herbicidal activity, black nightshade (black nightshade; 50 g ai/ha): 100
Soil treatment herbicidal activity, Crabgrass (crabgrass): 100

Cn1nnnc1COCc1nc(C(F)(F)F)ccc1C(=O)Nc1nnnn1C [Compound No. 1-61, N-(1-methyl-1H-tetrazol-5-yl)-2-(((1-methyl-1H-tetrazol-5-yl)methoxy)methyl)-6-(trifluoromethyl)nicotinamide]
pest or weed control at 50 g/ha (fall panicum; [1]): 70%
pest or weed control at 50 g/ha (black nightshade; 50 g ai/ha): 98%
pest or weed control at 50 g/ha (crabgrass; Digitaria sanguinalis): 40%

Cn1ncnc1COCc1nc(C(F)(F)F)ccc1C(=O)Nc1nnnn1C [Compound No. 1-102, 2-(((1-methyl-1H-1,2,4-triazol-5-yl)methoxy)methyl)-N-(1-methyl-1H-tetrazol-5-yl)-6-(trifluoromethyl)nicotinamide]
pest or weed control at 50 g/ha (fall panicum; [1]): 70%
pest or weed control at 50 g/ha (crabgrass; Digitaria sanguinalis): 20%

Cn1nnc(COc2nc(C(F)(F)F)ccc2C(=O)Nc2nnnn2C)n1 [Compound No. 2-1, N-(1-methyl-1H-tetrazol-5-yl)-2-((2-methyl-2H-tetrazol-5-yl)methoxy)-6-(trifluoromethyl)nicotinamide]
pest or weed control at 50 g/ha (fall panicum; [1]): 70%
pest or weed control at 50 g/ha (black nightshade; 50 g ai/ha): 90%
Soil treatment herbicidal activity, Crabgrass (crabgrass): 0

CN(Cc1nnn(C)n1)c1nc(C(F)(F)F)ccc1C(=O)Nc1nnnn1C [Compound No. 2-26, 2-(methyl((2-methyl-2H-tetrazol-5-yl)methyl)amino)-N-(1-methyl-1H-tetrazol-5-yl)-6-(trifluoromethyl)nicotinamide]
pest or weed control at 75 g/ha (fall panicum; Panicum dichotomiflorum, 75 g ai/ha): 70%
Soil treatment herbicidal activity, black nightshade (black nightshade; 75 g ai/ha): 100
pest or weed control at 75 g/ha (crabgrass; Digitaria sanguinalis, 75 g ai/ha): 98%

CON(Cc1nnn(C)n1)c1nc(C(F)(F)F)ccc1C(=O)Nc1nnnn1C [Compound No. 2-30, 2-(methoxy((2-methyl-2H-tetrazol-5-yl)methyl)amino)-N-(1-methyl-1H-tetrazol-5-yl)-6-(trifluoromethyl)nicotinamide]
pest or weed control at 50 g/ha (fall panicum; [1]): 60%
Soil treatment herbicidal activity, black nightshade (black nightshade; 50 g ai/ha): 100
Soil treatment herbicidal activity, Crabgrass (crabgrass): 100

Cn1nnc(COCc2nc(C(F)(F)F)ccc2C(=O)Nc2nnnn2C)n1 [Compound No. 2-59, N-(1-methyl-1H-tetrazol-5-yl)-2-(((2-methyl-2H-tetrazol-5-yl)methoxy)methyl)-6-(trifluoromethyl)nicotinamide]
pest or weed control at 50 g/ha (fall panicum; [1]): 95%
Soil treatment herbicidal activity, black nightshade (black nightshade; 50 g ai/ha): 100
pest or weed control at 50 g/ha (crabgrass; Digitaria sanguinalis): 98%

Cn1nnc(COCc2nc(C(F)(F)F)ccc2C(=O)N(C(=O)c2ccccc2)c2nnnn2C)n1 [Compound No. 2-68, N-benzoyl-N-(1-methyl-1H-tetrazol-5-yl)-2-(((2-methyl-2H-tetrazol-5-yl)methoxy)methyl)-6-(trifluoromethyl)nicotinamide]
pest or weed control at 50 g/ha (fall panicum; [1]): 98%
Soil treatment herbicidal activity, Crabgrass (crabgrass): 100

Cn1nnc(COCc2nc(C(F)(F)F)ccc2C(=O)N(c2nnnn2C)S(C)(=O)=O)n1 [Compound No. 2-69, N-(1-methyl-1H-tetrazol-5-yl)-2-(((2-methyl-2H-tetrazol-5-yl)methoxy)methyl)-N-(methylsulfonyl)-6-(trifluoromethyl)nicotinamide]
pest or weed control at 50 g/ha (fall panicum; [1]): 60%
pest or weed control at 50 g/ha (crabgrass; Digitaria sanguinalis): 98%

Cn1nnc(COCc2nc(C(F)(F)Cl)ccc2C(=O)Nc2nnnn2C)n1 [Compound No. 2-78, 6-(chlorodifluoromethyl)-N-(1-methyl-1H-tetrazol-5-yl)-2-(((2-methyl-2H-tetrazol-5-yl)methoxy)methyl)nicotinamide]
pest or weed control at 50 g/ha (fall panicum; [1]): 70%
Soil treatment herbicidal activity, Crabgrass (crabgrass): 100

Cn1nnc(COCc2nc(C(F)(F)C(F)(F)F)ccc2C(=O)Nc2nnnn2C)n1 [Compound No. 2-81, N-(1-methyl-1H-tetrazol-5-yl)-2-(((2-methyl-2H-tetrazol-5-yl)methoxy)methyl)-6-(perfluoroethyl)nicotinamide]
pest or weed control at 50 g/ha (fall panicum; [1]): 70%
Soil treatment herbicidal activity, Crabgrass (crabgrass): 100

Cn1nnc(COCc2nc(C(F)F)ccc2C(=O)Nc2nnnn2C)n1 [Compound No. 2-84, 6-(difluoromethyl)-N-(1-methyl-1H-tetrazol-5-yl)-2-(((2-methyl-2H-tetrazol-5-yl)methoxy)methyl)nicotinamide]
pest or weed control at 50 g/ha (fall panicum; [1]): 90%
Soil treatment herbicidal activity, black nightshade (black nightshade; 50 g ai/ha): 100
pest or weed control at 50 g/ha (crabgrass; Digitaria sanguinalis): 80%

Cn1cnc(COCc2nc(C(F)F)ccc2C(=O)Nc2nnnn2C)n1 [Compound No. 2-85]
Foliar treatment herbicidal activity, Fall panicum (fall panicum; 50 g ai/ha): 84
Soil treatment herbicidal activity, black nightshade (black nightshade; 50 g ai/ha): 93
Soil treatment herbicidal activity, Crabgrass (crabgrass): 0

CON(Cc1nnn(C)n1)Cc1nc(C(F)(F)F)ccc1C(=O)Nc1nnnn1C [Compound No. 2-97, 2-((methoxy((2-methyl-2H-tetrazol-5-yl)methyl)amino)methyl)-N-(1-methyl-1H-tetrazol-5-yl)-6-(trifluoromethyl)nicotinamide]
pest or weed control at 50 g/ha (fall panicum; [1]): 95%

Cn1nnc(CSCc2nc(C(F)(F)F)ccc2C(=O)Nc2nnnn2C)n1 [Compound No. 2-102, N-(1-methyl-1H-tetrazol-5-yl)-2-((((2-methyl-2H-tetrazol-5-yl)methyl)thio)methyl)-6-(trifluoromethyl)nicotinamide]
pest or weed control at 50 g/ha (fall panicum; [1]): 80%
Soil treatment herbicidal activity, black nightshade (black nightshade; 50 g ai/ha): 100
Soil treatment herbicidal activity, Crabgrass (crabgrass): 100

Cn1nnc(CS(=O)(=O)Cc2nc(C(F)(F)F)ccc2C(=O)Nc2nnnn2C)n1 [Compound No. 2-105, N-(1-methyl-1H-tetrazol-5-yl)-2-((((2-methyl-2H-tetrazol-5-yl)methyl)sulfonyl)methyl)-6-(trifluoromethyl)nicotinamide]
pest or weed control at 50 g/ha (fall panicum; [1]): 50%
pest or weed control at 50 g/ha (black nightshade; 50 g ai/ha): 60%
Soil treatment herbicidal activity, Crabgrass (crabgrass): 0

Cn1nnc(COCc2nc(C(F)(F)F)ccc2C(=S)Nc2nnnn2C)n1 [Compound No. 2-106, N-(1-methyl-1H-tetrazol-5-yl)-2-(((2-methyl-2H-tetrazol-5-yl)methoxy)methyl)-6-(trifluoromethyl)pyridin-3-carbothioamide]
pest or weed control at 50 g/ha (fall panicum; [1]): 70%
Soil treatment herbicidal activity, Crabgrass (crabgrass): 100

Cn1nnc(CSCc2nc(C(F)(F)F)ccc2C(=O)N(c2nnnn2C)S(C)(=O)=O)n1 [Compound No. 2-110, N-(1-methyl-1H-tetrazol-5-yl)-2-((((2-methyl-2H-tetrazol-5-yl)methyl)thio)methyl)-N-(methylsulfonyl)-6-(trifluoromethyl)nicotinamide]
pest or weed control at 50 g/ha (fall panicum; [1]): 70%

Cc1nc(COCc2nc(C(F)(F)F)ccc2C(=O)Nc2nnnn2C)nn1C [Compound No. 2-116, 2-(((1,5-dimethyl-1H-1,2,4-triazol-3-yl)methoxy)methyl)-N-(1-methyl-1H-tetrazol-5-yl)-6-(trifluoromethyl)nicotinamide]
pest or weed control at 50 g/ha (fall panicum; [1]): 80%

Cc1nc(COCc2nc(C(F)(F)F)ccc2C(=S)Nc2nnnn2C)nn1C [Compound No. 2-117, 2-(((1,5-dimethyl-1H-1,2,4-triazol-3-yl)methoxy)methyl)-N-(1-methyl-1H-tetrazol-5-yl)-6-(trifluoromethyl)pyridin-3-carbothioamide]
pest or weed control at 50 g/ha (fall panicum; [1]): 40%

Cn1nc(COCc2nc(C(F)(F)F)ccc2C(=O)Nc2nnnn2C)nc1C#N [Compound No. 2-134, 2-(((5-cyano-1-methyl-1H-1,2,4-triazol-3-yl)methoxy)methyl)-N-(1-methyl-1H-tetrazol-5-yl)-6-(trifluoromethyl)nicotinamide]
pest or weed control at 50 g/ha (fall panicum; [1]): 50%

Cn1nc(COCc2nc(C(F)(F)F)ccc2C(=O)Nc2nnnn2C)nc1Br [Compound No. 2-136, 2-(((5-bromo-1-methyl-1H-1,2,4-triazol-3-yl)methoxy)methyl)-N-(1-methyl-1H-tetrazol-5-yl)-6-(trifluoromethyl)nicotinamide]
pest or weed control at 50 g/ha (fall panicum; [1]): 50%
